Like-named read-outs stand apart in the source and are kept apart here.
Experiments:
[1] = biological target: T1, human topoisomerase I (Homo sapiens, UniProt P11387); details: relative topoisomerase I inhibition levels, previously determined, six levels (0 - 5, +++++ = 5); cited from earlier work
T1 sequence (P11387 1-765): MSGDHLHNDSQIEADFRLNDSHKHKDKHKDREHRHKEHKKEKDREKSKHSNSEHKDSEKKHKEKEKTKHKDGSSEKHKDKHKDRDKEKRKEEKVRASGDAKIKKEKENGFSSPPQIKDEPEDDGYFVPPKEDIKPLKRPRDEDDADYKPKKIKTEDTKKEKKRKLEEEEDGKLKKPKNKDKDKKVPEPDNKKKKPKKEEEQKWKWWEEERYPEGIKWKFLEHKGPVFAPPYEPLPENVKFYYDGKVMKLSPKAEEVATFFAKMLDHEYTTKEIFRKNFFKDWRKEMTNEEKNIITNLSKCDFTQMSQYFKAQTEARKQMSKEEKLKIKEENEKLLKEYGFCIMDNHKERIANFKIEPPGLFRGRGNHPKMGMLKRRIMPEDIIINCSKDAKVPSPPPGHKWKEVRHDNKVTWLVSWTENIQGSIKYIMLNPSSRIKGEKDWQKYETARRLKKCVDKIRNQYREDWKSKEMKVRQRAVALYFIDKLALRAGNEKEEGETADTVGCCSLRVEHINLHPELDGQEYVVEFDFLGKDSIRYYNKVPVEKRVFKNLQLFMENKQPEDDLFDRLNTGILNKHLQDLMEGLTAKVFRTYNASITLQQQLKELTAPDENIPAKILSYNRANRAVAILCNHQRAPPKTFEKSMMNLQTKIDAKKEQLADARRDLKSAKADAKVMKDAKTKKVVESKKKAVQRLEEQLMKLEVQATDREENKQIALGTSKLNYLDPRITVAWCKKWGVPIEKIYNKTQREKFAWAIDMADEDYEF

[2] = test system: NCI-60 cancer cell lines; experiment: NCI-60 cancer cell line drug screen (GI50, MGM); format: cell-based, human; details: Homo sapiens; for GI50: read-out: Antiproliferative Activities [GI50 (μM)]; for mean GI50 across NCI-60 panel (MGM): average of GI50 values across the entire panel of NCI-60 cancer cell lines
Experimental: Cancer cells were incubated with the test compounds at five concentrations ranging from 100 μM to 10 nM for 48 h. […] The approximate average of GI50 values across the entire panel of NCI-60 cancer cell lines for each compound was recorded as the MGM value.

[3] = test system: MYC protein expression in MCF-7 breast cancer cells; experiment: Western blotting of MYC protein level in MCF-7 cells; format: cell-based, human; details: for minimal effective concentration: Homo sapiens, MCF7, western blotting, MCF-7 cells, 0.5, 1, 2, and 4 μM, 24 hours, read-out: MYC Inhibition
In short: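 MCF-7 cells were exposed to compounds at 0.5, 1, 2 and 4 μM for 24 hours at 37° C. MYC was detected by immunoblot with ECL, using rabbit anti-MYC (1:1000) and anti-GAPDH (1:2000) as loading control.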

[4] = A549, Non-Small Cell Lung Cancer, A549/ATCC
[5] = COLO 205, Colon Cancer, COLO 205
[6] = DU-145, Prostate Cancer, DU-145
[7] = EKVX, Non-Small Cell Lung Cancer, EKVX
[8] = HCC 2998, Colon Cancer, HCC-2998
[9] = HOP-62, Non-Small Cell Lung Cancer, HOP-62
[10] = HOP-92, Non-Small Cell Lung Cancer, HOP-92
[11] = Hs-578T, Breast Cancer, HS 578T
[12] = IGROV-1, Ovarian Cancer, IGROV1
[13] = MDA-MB-231, Breast Cancer, MDA-MB-231/ATCC
[14] = MDA-MB-435, Melanoma, MDA-MB-435
[15] = MDA-MB-468, Breast Cancer, MDA-MB-468
[16] = NCI-H23, Non-Small Cell Lung Cancer, NCI-H23
[17] = NCI-H226, Non-Small Cell Lung Cancer, NCI-H226
[18] = NCI-H322M, Non-Small Cell Lung Cancer, NCI-H322M
[19] = NCI-H460, Non-Small Cell Lung Cancer, NCI-H460
[20] = NCI-H522, Non-Small Cell Lung Cancer, NCI-H522
[21] = OVCAR-3, Ovarian Cancer, OVCAR-3
[22] = OVCAR-4, Ovarian Cancer, OVCAR-4
[23] = OVCAR-5, Ovarian Cancer, OVCAR-5
[24] = OVCAR-8, Ovarian Cancer, OVCAR-8
[25] = SK-OV-3, Ovarian Cancer, SK-OV-3

CN(C)CCCn1c2c(c3ccc(-c4ccn[nH]4)cc3c1=O)C(=O)c1ccccc1-2 [Compound 30]
Top1 Inhibiton [1]: 0 (no inhibition, 0, no MYC expression inhibition up to 4.0 μM) | GI50 ([2]; 786-0, Renal Cancer, 786-0): 0.22 µM | GI50 ([2]; A498, Renal Cancer, A498): 10.6 µM | GI50 [2, 4]: 0.06 µM | GI50 ([2]; ACHN, Renal Cancer, ACHN): 0.09 µM | GI50 ([2]; BT-549, Breast Cancer, BT-549): 3.1 µM | GI50 ([2]; CCRF-CEM, Leukemia, CCRF-CEM): 0.03 µM | GI50 [2, 5]: 4.92 µM | GI50 [2, 6]: 0.2 µM | GI50 [2, 7]: 2.91 µM | GI50 [2, 8]: 10 µM | GI50 ([2]; HCT-15, Colon Cancer, HCT-15): 0.09 µM | GI50 ([2]; HCT-116, Colon Cancer, HCT-116): 0.39 µM | GI50 ([2]; HL-60, Leukemia, HL-60(TB)): 0.03 µM | GI50 [2, 9]: 0.18 µM | GI50 [2, 10]: 0.13 µM | GI50 ([2]; HT-29, Colon Cancer, HT29): 0.34 µM | GI50 [2, 11]: 4.9 µM | GI50 [2, 12]: 0.58 µM | GI50 ([2]; K562, Leukemia, K-562): 0.34 µM | GI50 ([2]; KM12, Colon Cancer, KM12): 0.53 µM | GI50 ([2]; LOX IMVI, Melanoma, LOX IMVI): 0.1 µM | GI50 ([2]; Leukemia, SR): 0.02 µM | GI50 ([2]; MCF7, Breast Cancer, MCF7): 0.04 µM | GI50 [2, 13]: 1.27 µM | GI50 [2, 14]: 10.3 µM | GI50 [2, 15]: 7.84 µM | GI50 ([2]; MOLT-4, Leukemia, MOLT-4): 0.02 µM | GI50 ([2]; Malme-3M, Melanoma, MALME-3M): 0.93 µM | GI50 ([2]; Melanoma, M14): 1.65 µM | GI50 [2, 16]: 0.24 µM | GI50 [2, 17]: 0.27 µM | GI50 [2, 18]: 7.05 µM | GI50 [2, 19]: 0.04 µM | GI50 [2, 20]: 0.84 µM | GI50 [2, 21]: 6.09 µM | GI50 [2, 22]: 1.45 µM | GI50 [2, 23]: 1.51 µM | GI50 [2, 24]: 0.16 µM | GI50 ([2]; Ovarian Cancer, NCl/ADR-RES): 1.48 µM | GI50 ([2]; Prostate Cancer, PC-3): 1.21 µM | GI50 ([2]; RPMI-8226, Leukemia, RPMI-8226): 0.12 µM | GI50 ([2]; RXF 393, Renal Cancer, RXF 393): 1.66 µM | GI50 ([2]; Renal Cancer, U0-31): 0.3 µM | GI50 ([2]; SF-268, CNS Cancer, SF-268): 1.85 µM | GI50 ([2]; SF-295, CNS Cancer, SF-295): 0.36 µM | GI50 ([2]; SF-539, CNS Cancer, SF-539): 1.04 µM | GI50 ([2]; SK-MEL-2, Melanoma, SK-MEL-2): 18.2 µM | GI50 ([2]; SK-MEL-5, Melanoma, SK-MEL-5): 0.48 µM | GI50 ([2]; SK-MEL-28, Melanoma, SK-MEL-28): 2.01 µM | GI50 [2, 25]: 1.21 µM | GI50 ([2]; SN12C, Renal Cancer, SN12C): 0.25 µM | GI50 ([2]; SNB-19, CNS Cancer, SNB-19): 0.33 µM | GI50 ([2]; SNB-75, CNS Cancer, SNB-75): 1.39 µM | GI50 ([2]; SW-620, Colon Cancer, SW-620): 0.2 µM | GI50 ([2]; T47D, Breast Cancer, T-47D): 0.63 µM | GI50 ([2]; TK-10, Renal Cancer, TK-10): 2.75 µM | GI50 ([2]; U-251, CNS Cancer, U251): 0.18 µM | GI50 ([2]; UACC-62, Melanoma, UACC-62): 0.72 µM | GI50 ([2]; UACC-257, Melanoma, UACC-257): 12.3 µM | mean GI50 across NCI-60 panel (MGM) [2]: 600 nM | minimal effective concentration [3]: 4 µM

CNCCCn1c2c(c3ccc(F)cc3c1=O)C(=O)c1cc(OC)cnc1-2 [Compound 6]
Top1 Inhibiton [1]: + (weak inhibition, +, MYC expression inhibited at 4.0 μM) | GI50 ([2]; 786-0, Renal Cancer, 786-0): 0.2 µM | GI50 ([2]; A498, Renal Cancer, A498): 0.37 µM | GI50 [2, 4]: 0.11 µM | GI50 ([2]; ACHN, Renal Cancer, ACHN): 0.12 µM | GI50 ([2]; BT-549, Breast Cancer, BT-549): 0.58 µM | GI50 ([2]; CCRF-CEM, Leukemia, CCRF-CEM): 0.26 µM | GI50 [2, 5]: 0.07 µM | GI50 [2, 6]: 0.2 µM | GI50 [2, 7]: 0.3 µM | GI50 [2, 8]: 1.15 µM | GI50 ([2]; HCT-15, Colon Cancer, HCT-15): 0.25 µM | GI50 ([2]; HCT-116, Colon Cancer, HCT-116): 0.14 µM | GI50 ([2]; HL-60, Leukemia, HL-60(TB)): 0.22 µM | GI50 [2, 9]: 0.14 µM | GI50 [2, 10]: 0.37 µM | GI50 ([2]; HT-29, Colon Cancer, HT29): 0.15 µM | GI50 [2, 11]: 2.24 µM | GI50 [2, 12]: 0.32 µM | GI50 ([2]; K562, Leukemia, K-562): 0.17 µM | GI50 ([2]; KM12, Colon Cancer, KM12): 0.24 µM | GI50 ([2]; LOX IMVI, Melanoma, LOX IMVI): 0.14 µM | GI50 ([2]; Leukemia, SR): 0.12 µM | GI50 ([2]; MCF7, Breast Cancer, MCF7): 0.03 µM | GI50 [2, 13]: 0.7 µM | GI50 [2, 14]: 0.47 µM | GI50 [2, 15]: 0.22 µM | GI50 ([2]; MOLT-4, Leukemia, MOLT-4): 0.04 µM | GI50 ([2]; Malme-3M, Melanoma, MALME-3M): 0.32 µM | GI50 ([2]; Melanoma, M14): 0.31 µM | GI50 [2, 16]: 0.31 µM | GI50 [2, 17]: 0.16 µM | GI50 [2, 18]: 0.45 µM | GI50 [2, 19]: 0.05 µM | GI50 [2, 20]: 0.06 µM | GI50 [2, 21]: 0.26 µM | GI50 [2, 22]: 0.42 µM | GI50 [2, 23]: 0.35 µM | GI50 [2, 24]: 0.19 µM | GI50 ([2]; Ovarian Cancer, NCl/ADR-RES): 0.43 µM | GI50 ([2]; Prostate Cancer, PC-3): 0.37 µM | GI50 ([2]; RPMI-8226, Leukemia, RPMI-8226): 0.2 µM | GI50 ([2]; RXF 393, Renal Cancer, RXF 393): 0.32 µM | GI50 ([2]; Renal Cancer, U0-31): 0.13 µM | GI50 ([2]; SF-268, CNS Cancer, SF-268): 0.38 µM | GI50 ([2]; SF-295, CNS Cancer, SF-295): 0.19 µM | GI50 ([2]; SF-539, CNS Cancer, SF-539): 0.37 µM | GI50 ([2]; SK-MEL-2, Melanoma, SK-MEL-2): 1.6 µM | GI50 ([2]; SK-MEL-5, Melanoma, SK-MEL-5): 0.31 µM | GI50 ([2]; SK-MEL-28, Melanoma, SK-MEL-28): 1.44 µM | GI50 [2, 25]: 0.23 µM | GI50 ([2]; SN12C, Renal Cancer, SN12C): 0.21 µM | GI50 ([2]; SNB-19, CNS Cancer, SNB-19): 0.22 µM | GI50 ([2]; SNB-75, CNS Cancer, SNB-75): 0.25 µM | GI50 ([2]; SW-620, Colon Cancer, SW-620): 0.18 µM | GI50 ([2]; T47D, Breast Cancer, T-47D): 0.16 µM | GI50 ([2]; TK-10, Renal Cancer, TK-10): 0.33 µM | GI50 ([2]; U-251, CNS Cancer, U251): 0.11 µM | GI50 ([2]; UACC-62, Melanoma, UACC-62): 0.61 µM | GI50 ([2]; UACC-257, Melanoma, UACC-257): 0.49 µM | mean GI50 across NCI-60 panel (MGM) [2]: 240 nM | minimal effective concentration [3]: 0.5 to 1 µM | MYC-inhibitory effect (MYC protein, western blot) ([3]; MCF-7, 0.5, 1, 2, and 4 μM, 24 h): clear MYC-inhibitory effect

— patent US20210382058A1, “PATIENT SELECTION FOR TREATMENT OF MYC POSITIVE CANCERS WITH INDENOISOQUINOLINES” (Purdue Research Foundation, priority 2020, published 2021)
